According to patent publication US20240116877A1, “KIT KINASE INHIBITORS AND METHODS OF USE THEREOF” (Deciphera Pharmaceuticals, LLC, priority 2021, published 2024):
Where two headings read alike, the source gives them in different places.

Experiments:
GIST 430 cells = assay: GIST 430 Cell Proliferation Assay (resazurin); type: cell-based; details: Homo sapiens; GIST430 cell proliferation
Summary of the method: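 Five thousand cells per well were exposed to serially diluted compound in complete growth medium for 115 h at 37 degrees Celsius, 5% CO2. Resazurin was then added for a further 5 h, fluorescence read at 540 nm excitation/600 nm emission, and IC50 values calculated.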

c-KIT kinase (uKIT) = c-KIT kinase (uKIT) (Homo sapiens (Human), UniProt P10721); assay: Biochemical Assay for uKIT (coupled pyruvate kinase/lactate dehydrogenase assay); details: Inhibition of biochemical activity of uKIT kinase; 1 mM ATP
c-KIT kinase (uKIT), sequence (P10721 other isoform, or with tags, fused parts or gaps): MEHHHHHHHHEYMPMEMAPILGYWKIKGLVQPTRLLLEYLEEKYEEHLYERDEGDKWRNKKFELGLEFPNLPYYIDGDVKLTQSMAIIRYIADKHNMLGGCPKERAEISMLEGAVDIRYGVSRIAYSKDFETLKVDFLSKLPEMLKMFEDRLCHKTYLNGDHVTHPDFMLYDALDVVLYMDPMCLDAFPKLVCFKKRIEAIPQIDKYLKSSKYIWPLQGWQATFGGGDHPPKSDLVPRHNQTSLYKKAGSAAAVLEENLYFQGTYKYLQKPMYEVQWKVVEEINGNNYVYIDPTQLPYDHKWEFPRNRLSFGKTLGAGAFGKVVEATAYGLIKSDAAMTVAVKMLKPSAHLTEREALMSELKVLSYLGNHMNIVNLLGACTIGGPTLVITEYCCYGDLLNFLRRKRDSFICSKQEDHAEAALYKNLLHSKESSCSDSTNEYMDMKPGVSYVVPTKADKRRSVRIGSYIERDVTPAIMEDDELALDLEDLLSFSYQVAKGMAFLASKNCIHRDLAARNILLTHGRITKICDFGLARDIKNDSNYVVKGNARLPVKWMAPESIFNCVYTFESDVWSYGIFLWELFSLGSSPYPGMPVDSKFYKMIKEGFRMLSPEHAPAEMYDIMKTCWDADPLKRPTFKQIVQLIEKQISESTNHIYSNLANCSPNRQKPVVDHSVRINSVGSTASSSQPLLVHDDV
Summary of the method: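 Continuous coupled PK/LDH assay following NADH oxidation at 340 nm for 6 h at 30° C, with 16 nM or 4.36 nM KIT (two constructs), 0.7 mg/mL PE4Y, 1 mM ATP, pH 7.5. Rates from the 2-3 h window converted to percent inhibition versus controls; IC50 fitted.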

Ba/F3 KIT mutant cells = assay: Ba/F3 mutant KIT Cell Proliferation Assays (resazurin); type: cell-based; details: Mus musculus, BaF3
Summary of the method: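 IC50 values come from resazurin fluorescence (ex 540, em 600) after 5 h dye exposure, added as a 440 μM solution. Cells were IL-3-independent Ba/F3 expressing mutant KIT from a lentiviral vector, puromycin-selected.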

[1] = Ba/F3 KIT AYdup-V654A mutant cell proliferation, read-out: AYdup-V654A IC50
[2] = Ba/F3 KIT exon11del-V654A mutant cell proliferation, read-out: exon11del-V654A IC50
[3] = Ba/F3 KIT AYdup mutant cell proliferation, read-out: AYdup IC50
[4] = Ba/F3 KIT AYdup-D816G mutant cell proliferation, read-out: AYdup-D816G IC50
[5] = Ba/F3 KIT exon11del-Y823D mutant cell proliferation, read-out: exon11del-Y823D IC50

| Structure (SMILES) | IC50 (c-KIT kinase (uKIT)) [nM] | IC50 (Ba/F3 KIT mutant cells; [1]) [nM] | IC50 (Ba/F3 KIT mutant cells; [2]) [nM] | IC50 (Ba/F3 KIT mutant cells; [3]) [nM] | IC50 (Ba/F3 KIT mutant cells; [4]) [nM] | IC50 (Ba/F3 KIT mutant cells; [5]) [nM] | IC50 (GIST 430 cells) [nM] |
| --- | --- | --- | --- | --- | --- | --- | --- |
| COCCOc1cc(F)c2c(Nc3ccc(NC(=O)NC4CC(C)(C)C4)nc3)ncnc2c1 [Example 25] | 100 to 1000 | > 1000 | > 1000 | – | – | – | > 1000 |
| COCCOc1cc(F)c2c(Nc3ccc(NC(=O)CCCC(C)(C)F)cc3)ncnc2c1 [Example 45] | ≤ 10 | 10 to 100 | 10 to 100 | ≤ 10 | 10 to 100 | 100 to 1000 | ≤ 10 |
| COCCOc1cc(F)c2c(Nc3ccc(NC(=O)CC(=O)N(C(C)C)C(C)C)cc3)ncnc2c1 [Example 163] | 100 to 1000 | 100 to 1000 | > 1000 | – | – | 100 to 1000 | 100 to 1000 |
| COCCOc1cc(F)c2c(Nc3ccc(NC(=O)CNC(=O)C(C)(C)C)cc3)ncnc2c1 [Example 103] | 10 to 100 | 10 to 100 | 10 to 100 | – | – | 100 to 1000 | ≤ 10 |
| COCCOc1cc(F)c2c(Nc3ccc(NC(=O)C(=O)NCC(C)(C)C)cc3)ncnc2c1 [Example 126] | 100 to 1000 | 100 to 1000 | 100 to 1000 | – | – | > 1000 | 100 to 1000 |
| COCCOc1cc(F)c2c(Nc3ccc(NC(=O)CC(=O)NCC4(C#N)CC4)cc3)ncnc2c1 [Example 98] | 10 to 100 | 100 to 1000 | 10 to 100 | – | – | > 1000 | 100 to 1000 |
| COCCOc1cc(F)c2c(Nc3ccc(NC(=O)CC(=O)NCC4CCCCC4)cc3)ncnc2c1 [Example 91] | ≤ 10 | 10 to 100 | 10 to 100 | – | – | 100 to 1000 | 10 to 100 |
| COCCOc1cc(F)c2c(Nc3ccc(NC(=O)C4(C(=O)NCCC(C)(C)F)CC4)cc3)ncnc2c1 [Example 75] | 10 to 100 | 100 to 1000 | 10 to 100 | – | – | > 1000 | 100 to 1000 |
| COCCOc1cc(F)c2c(Nc3ccc(NC(=O)C4(C(=O)N(C)CC(C)(C)C)CC4)cc3)ncnc2c1 [Example 50] | 100 to 1000 | 100 to 1000 | > 1000 | 100 to 1000 | > 1000 | > 1000 | 100 to 1000 |
| CC(C)(F)CCNC(=O)Nc1ccc(Nc2ncnc3cc(OC[C@H]4CCCO4)cc(F)c23)cc1 [Example 161] | ≤ 10 | ≤ 10 | 10 to 100 | ≤ 10 | 10 to 100 | 10 to 100 | 10 to 100 |
| CC(C)(F)CCNC(=O)Nc1ccc(Nc2ncnc3cc(OC4CCOCC4)cc(F)c23)cc1 [Example 138] | ≤ 10 | 10 to 100 | ≤ 10 | ≤ 10 | 10 to 100 | 100 to 1000 | 10 to 100 |
| COCCOc1cc(F)c2c(Nc3ccc(NC(=O)CN(C)C(=O)C(C)C)cc3)ncnc2c1 [Example 66] | 10 to 100 | 10 to 100 | 10 to 100 | – | – | > 1000 | 10 to 100 |
| COCCOc1cc(F)c2c(Nc3ccc(NC(=O)CC(=O)NCC4CC(F)(F)C4)cc3)ncnc2c1 [Example 115] | 10 to 100 | 10 to 100 | 10 to 100 | – | – | 100 to 1000 | 10 to 100 |
| COCCOc1cc(F)c2c(Nc3ccc(NC(=O)NC4CCC(C(F)(F)F)CC4)cc3)ncnc2c1 (stereo not drawn) [Example 15] | ≤ 10 | 10 to 100 | 10 to 100 | – | 10 to 100 | 100 to 1000 | 10 to 100 |
| COCCOc1cc(F)c2c(Nc3ccc(NC(=O)C4(C(=O)N(C)CC(C)C)CC4)cc3)ncnc2c1 [Example 72] | > 1000 | > 1000 | 100 to 1000 | – | – | – | 100 to 1000 |
| COCCOc1cc(F)c2c(Nc3ccc(NC(=O)COCCC(C)C)cc3)ncnc2c1 [Example 47] | ≤ 10 | 10 to 100 | 10 to 100 | ≤ 10 | 10 to 100 | 10 to 100 | ≤ 10 |
| COCCOc1cc(F)c2c(Nc3ccc(NC(=O)NC4CCC(C)(C)C4)cc3)ncnc2c1 (stereo not drawn) [Example 34] | ≤ 10 | 10 to 100 | ≤ 10 | – | ≤ 10 | 10 to 100 | 10 to 100 |
| COCCOc1cc(F)c2c(Nc3ccc(NC(=O)CC(=O)N(C)CC(C)(C)C)cc3)ncnc2c1 [Example 51] | 10 to 100 | 10 to 100 | 10 to 100 | 10 to 100 | 10 to 100 | 10 to 100 | ≤ 10 |
| CC(C)(F)CCNC(=O)Nc1ccc(Nc2ncnc3cc(OC4CCC4)cc(F)c23)cc1 [Example 174] | ≤ 10 | 10 to 100 | 10 to 100 | – | – | 10 to 100 | 100 to 1000 |
| COCCOc1cc(F)c2c(Nc3ccc(NC(=O)CC(=O)NCC4CC5(CCC5)C4)cc3)ncnc2c1 [Example 118] | ≤ 10 | 10 to 100 | ≤ 10 | – | – | 10 to 100 | 10 to 100 |
| COCCOc1cc(F)c2c(Nc3ccc(NC(=O)CC4CCC(C)(C)CC4)cc3)ncnc2c1 [Example 69] | ≤ 10 | 10 to 100 | 10 to 100 | 10 to 100 | ≤ 10 | 10 to 100 | ≤ 10 |
| COCCOc1cc(F)c2c(Nc3ccc(NC(=O)CC(=O)NCCN4CCOCC4)cc3)ncnc2c1 [Example 84] | > 1000 | – | 100 to 1000 | – | – | – | > 1000 |
| COCCOc1cc(F)c2c(Nc3ccc(NC(=O)NCCCC(C)(C)C#N)cc3)ncnc2c1 [Example 99] | ≤ 10 | 10 to 100 | ≤ 10 | – | – | 10 to 100 | ≤ 10 |

Continued, in another order:

| IC50 (c-KIT kinase (uKIT)) [nM] | IC50 (Ba/F3 KIT mutant cells; [1]) [nM] | IC50 (Ba/F3 KIT mutant cells; [2]) [nM] | IC50 (Ba/F3 KIT mutant cells; [3]) [nM] | IC50 (Ba/F3 KIT mutant cells; [4]) [nM] | IC50 (Ba/F3 KIT mutant cells; [5]) [nM] | Structure (SMILES) | IC50 (GIST 430 cells) [nM] |
| --- | --- | --- | --- | --- | --- | --- | --- |
| 10 to 100 | 10 to 100 | 10 to 100 | – | – | 100 to 1000 | COCCOc1cc(F)c2c(Nc3ccc(NC(=O)CC(=O)NCC(C)(C)F)cc3)ncnc2c1 [Example 89] | 10 to 100 |
| 100 to 1000 | > 1000 | > 1000 | – | – | > 1000 | COCCOc1cc(F)c2c(Nc3ccc(NC(=O)CC(=O)N4CCCC4)cc3)ncnc2c1 [Example 186] | > 1000 |
| ≤ 10 | 10 to 100 | ≤ 10 | ≤ 10 | 10 to 100 | 10 to 100 | COCCOc1cc(F)c2c(Nc3ccc(NC(=O)CC(=O)NCC4(C)CCC4)cc3)ncnc2c1 [Example 111] | ≤ 10 |
| 10 to 100 | 10 to 100 | ≤ 10 | ≤ 10 | 10 to 100 | > 1000 | COCCOc1cc(F)c2c(Nc3ccc(NC(=O)CC(=O)N4CC(C)(C)C4)cc3)ncnc2c1 [Example 139] | 10 to 100 |
| 10 to 100 | 100 to 1000 | 10 to 100 | – | – | > 1000 | COCCOc1cc(F)c2c(Nc3ccc(NC(=O)N4CCC(C(C)(C)C)C4)cc3)ncnc2c1 (stereo not drawn) [Example 122] | 100 to 1000 |
| ≤ 10 | 10 to 100 | ≤ 10 | ≤ 10 | 10 to 100 | 10 to 100 | COCCOc1cc(F)c2c(Nc3ccc(NC(=O)CC(=O)NC4CCCCC4)cc3)ncnc2c1 [Example 97] | ≤ 10 |
| 10 to 100 | 100 to 1000 | 10 to 100 | – | – | – | COCCOc1cc(F)c2c(Nc3ccc(NC(=O)CC(=O)NCC4(C)COC4)cc3)ncnc2c1 [Example 132] | 100 to 1000 |
| > 1000 | – | > 1000 | – | – | – | COCCOc1cc(F)c2c(Nc3ccc(NC(=O)CC4CCN(C)CC4)cc3)ncnc2c1 [Example 40] | > 1000 |
| 100 to 1000 | 100 to 1000 | > 1000 | – | – | > 1000 | COCCOc1cc(F)c2c(Nc3ccc(NC(=O)CC(=O)N4CCCCC4)cc3)ncnc2c1 [Example 187] | 100 to 1000 |
| 100 to 1000 | 100 to 1000 | 100 to 1000 | – | – | – | COCCOc1cc(F)c2c(Nc3ccc(NC(=O)CC(=O)NC4CC4)cc3)ncnc2c1 [Example 94] | 100 to 1000 |
| 100 to 1000 | 100 to 1000 | 10 to 100 | – | – | > 1000 | COCCOc1cc(F)c2c(Nc3ccc(NC(=O)COCC4CC4)cc3)ncnc2c1 [Example 57] | 10 to 100 |
| 10 to 100 | 10 to 100 | 10 to 100 | – | – | > 1000 | COCCOc1cc(F)c2c(Nc3ccc(NC(=O)CC(=O)NC(C)C)cc3)ncnc2c1 [Example 96] | 10 to 100 |
| 10 to 100 | 10 to 100 | 10 to 100 | – | – | 100 to 1000 | COCCOc1cc(F)c2c(Nc3ccc(NC(=O)CC(=O)N4CCCC4(C)C)cc3)ncnc2c1 [Example 140] | 10 to 100 |
| 10 to 100 | 10 to 100 | 100 to 1000 | – | – | 100 to 1000 | COCCOc1cc(F)c2c(Nc3ccc(NC(=O)CC(=O)N4CC[C@@H](C)C4)cc3)ncnc2c1 [Example 198] | 10 to 100 |
| 100 to 1000 | 100 to 1000 | 100 to 1000 | – | – | 100 to 1000 | COCCOc1cc(F)c2c(Nc3ccc(NC(=O)CC(=O)N4C[C@@H](C)O[C@@H](C)C4)cc3)ncnc2c1 [Example 179] | 100 to 1000 |
